Data: ChEMBL document CHEMBL4251635, “Identification and development of benzoxazole derivatives as novel bacterial glutamate racemase inhibitors” (Eur J Med Chem, 2018)
Converted amounts (≈) assume the structure as drawn.

Key:
[1] = test system: Mycobacterium tuberculosis; experiment: Antimycobacterial activity against replicating Mycobacterium tuberculosis H37Rv incubated for 1 week by MABA method; type: functional; details: 168 h
[2] = test system: RAW264.7; experiment: Cytotoxicity against mouse RAW264.7 cells assessed as reduction in cell viability at 25 uM after 48 hrs by MTT assay relative to control; type: cell-based; details: raw264.7, 48 h
[3] = test system: Mycobacterium tuberculosis; experiment: Antimycobacterial activity against replicating Mycobacterium tuberculosis H37Rv incubated for 1 week in presence of verapamil by MABA method; type: functional; details: 168 h
[4] = test system: Mycobacterium tuberculosis; experiment: Antimycobacterial activity against replicating Mycobacterium tuberculosis H37Rv incubated for 1 week in presence of piperine by MABA method; type: functional; details: 168 h
[5] = test system: Mycobacterium tuberculosis; experiment: Antibiofilm activity against Mycobacterium tuberculosis H37Rv assessed as log reduction in bacterial load at 10 ug/ml incubated for 1 week by MPN assay; type: functional
[6] = test system: Mycobacterium marinum; experiment: Antimycobacterial activity against Mycobacterium marinum ATCC BAA-535 infected in zebrafish at 5 mg/kg, po treated for 7 days by MPN assay; type: functional
[7] = test system: Mycobacterium tuberculosis; experiment: Antimycobacterial activity against Mycobacterium tuberculosis H37Rv dormant stage assessed as log reduction in bacterial load at 10 ug/ml incubated for 7 days; type: functional
[8] = molecular target: T1, Glutamate racemase (Mycobacterium tuberculosis (strain ATCC 25618 / H37Rv)) (UniProt P9WPW9); experiment: Stabilization of Mycobacterium tuberculosis glutamate racemase assessed as change in melting temperature by sypro-orange dye-based fluorescence assay
T1 sequence (whole entry): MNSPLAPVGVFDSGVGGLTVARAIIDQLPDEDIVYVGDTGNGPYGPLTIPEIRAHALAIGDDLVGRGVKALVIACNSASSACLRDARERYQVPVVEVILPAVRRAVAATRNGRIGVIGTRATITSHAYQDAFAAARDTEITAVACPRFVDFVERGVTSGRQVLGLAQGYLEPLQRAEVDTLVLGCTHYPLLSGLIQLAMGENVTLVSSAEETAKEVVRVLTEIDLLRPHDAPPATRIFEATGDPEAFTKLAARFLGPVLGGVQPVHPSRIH

[9] = molecular target: T1, Glutamate racemase (Mycobacterium tuberculosis (strain ATCC 25618 / H37Rv)); experiment: Stabilization of Mycobacterium tuberculosis glutamate racemase bound to D-glutamate assessed as change in melting temperature by sypro-orange dye-based fluorescence assay
[10] = test system: Mycobacterium tuberculosis; experiment: Bactericidal activity against Mycobacterium tuberculosis H37Rv dormant stage up to 21 days by time kill assay; type: functional; details: 504 h
[11] = molecular target: T1, Glutamate racemase (Mycobacterium tuberculosis (strain ATCC 25618 / H37Rv)); experiment: Stabilization of Mycobacterium tuberculosis glutamate racemase assessed as melting temperature by sypro-orange dye-based fluorescence assay (reference value: 43.7 degreeC)
[12] = molecular target: T1, Glutamate racemase (Mycobacterium tuberculosis (strain ATCC 25618 / H37Rv)); experiment: Stabilization of Mycobacterium tuberculosis glutamate racemase bound to D-glutamate assessed as melting temperature by sypro-orange dye-based fluorescence assay (reference value: 45.1 degreeC)
[13] = test system: Mycobacterium tuberculosis; experiment: Bactericidal activity against Mycobacterium tuberculosis H37Rv dormant stage at 5 to 20 uM by time kill assay; type: functional, organism-based; details: TDE = time-dependent effect
[14] = test system: Mycobacterium marinum; experiment: Antimycobacterial activity against Mycobacterium marinum ATCC BAA-535 infected in zebrafish at 10 mg/kg, po treated for 7 days by MPN assay; type: functional
[15] = test system: Mycobacterium tuberculosis; experiment: Ratio of MIC for Mycobacterium tuberculosis H37Rv to MIC for Mycobacterium tuberculosis H37Rv in presence of verapamil; type: functional

SMILES	MIC [1] [µM]	Activity [2] [%]	MIC [3] [µM]	MIC [4] [µM]	other results
Cc1ccc2oc(-c3cccc(NC(=O)Nc4ccc(Cl)cc4)c3)nc2c1	66.3 (≈ 25.1 µg/mL)	1.09	–	–	–
Cc1ccc(NC(=O)Nc2cccc(-c3nc4ccccc4o3)c2)cc1	36.2 (≈ 12.4 µg/mL)	1.09	36.2	36.2	–
Cc1ccc(NC(=S)Nc2cccc(-c3nc4cc(C)ccc4o3)c2)cc1	77 (≈ 28.8 µg/mL)	2.12	77	77	–
S=C(Nc1ccccc1)Nc1cccc(-c2nc3ccccc3o2)c1	19.3 (≈ 6.67 µg/mL)	96.23	–	–	–
O=C(NCc1ccccc1)Nc1cccc(-c2nc3ccccc3o2)c1	72.8 (≈ 25 µg/mL)	2.12	–	–	–
CC[C@@H](CO)NCCN[C@@H](CC)CO [ETHAMBUTOL]	7.89 (≈ 1.61 µg/mL)	–	3.82	3.82	–
S=C(Nc1ccc(Cl)cc1)Nc1cccc(-c2nc3ccccc3o2)c1	63.9 (≈ 24.3 µg/mL)	22.81	–	–	–
Cc1ccc2oc(-c3cccc(NC(=O)Nc4ccccc4)c3)nc2c1	72.9 (≈ 25 µg/mL)	10.15	72.9	72.9	–
CC(C)c1ccc(NC(=O)Nc2cccc(-c3nc4ccccc4o3)c2)cc1	81.2 (≈ 30.2 µg/mL)	3.52	–	–	–
COc1c(N2C[C@@H]3CCCN[C@@H]3C2)c(F)cc2c(=O)c(C(=O)O)cn(C3CC3)c12 [MOXIFLOXACIN]	–	–	–	–	log(activity) [5]: 2; log(activity) [6]: 2.4; log(activity) [7]: 0.3
Cc1ccc2oc(-c3cccc(NC(=O)NCc4ccccc4)c3)nc2c1	–	–	–	–	ΔTm [8]: 3.2 °C; ΔTm [9]: 2 °C
Fc1ccc(NC(=S)Nc2cccc(-c3nc4ccccc4o3)c2)cc1	4.37 (≈ 1.59 µg/mL)	96.02	–	–	MBC [10]: 27.5 µM (≈ 9.98 µg/mL); log(activity) [5]: 0.4; log(activity) [7]: 0.2
COc1ccc(NC(=O)Nc2cccc(-c3nc4ccccc4o3)c2)cc1	69.3 (≈ 24.9 µg/mL)	17.26	69.3	69.3	–
CO[C@H]1/C=C/O[C@@]2(C)Oc3c(C)c(O)c4c(O)c(c(/C=N/N5CCN(C)CC5)c(O)c4c3C2=O)NC(=O)/C(C)=C\C=C\[C@H](C)[C@H](O)[C@@H](C)[C@@H](O)[C@@H](C)[C@H](OC(C)=O)[C@@H]1C [RIFAMPIN]	0.21 (≈ 0.173 µg/mL)	–	0.21	0.21	log(activity) [5]: 1.5; log(activity) [7]: 0.8
Cc1ccc2oc(-c3cccc(NC(=O)Nc4ccc(F)cc4)c3)nc2c1	69.3 (≈ 25.1 µg/mL)	3.17	–	–	–
O=C(Nc1ccc(F)cc1)Nc1cccc(-c2nc3ccccc3o2)c1	72.1 (≈ 25.1 µg/mL)	2.98	72.1	72.1	–
Cc1ccc2oc(-c3cccc(NC(=S)Nc4ccc(F)cc4)c3)nc2c1	2.16 (≈ 0.815 µg/mL)	81.92	–	–	log(activity) [5]: 0.8; log(activity) [7]: 2.5
O=C(Nc1ccc([N+](=O)[O-])cc1)Nc1cccc(-c2nc3ccccc3o2)c1	67 (≈ 25.1 µg/mL)	95.11	–	–	–
NNC(=O)c1ccncc1 [ISONIAZID]	0.78 (≈ 0.107 µg/mL)	–	0.78	0.78	log(activity) [5]: 1.2; log(activity) [6]: 2.5; log(activity) [7]: 1.4
O=[N+]([O-])c1ccc(NC(=S)Nc2cccc(-c3nc4ccccc4o3)c2)cc1	2.09 (≈ 0.816 µg/mL)	88.12	–	–	log(activity) [5]: 0.8; log(activity) [7]: 2.5
Cc1ccc(NC(=S)Nc2cccc(-c3nc4ccccc4o3)c2)cc1	69.5 (≈ 25 µg/mL)	99.14	–	–	–
Cc1ccc2oc(-c3cccc(NC(=S)NCc4ccccc4)c3)nc2c1	2.05 (≈ 0.766 µg/mL)	38.91	–	–	–
S=C(NCc1ccccc1)Nc1cccc(-c2nc3ccccc3o2)c1	69.2 (≈ 24.9 µg/mL)	47.21	2.21	2.21	–
Cc1ccc2oc(-c3cccc(NC(=S)Nc4ccc(Cl)cc4)c3)nc2c1	8.72 (≈ 3.43 µg/mL)	55.82	2.01	2.01	Tm [11]: 49.8 °C; Tm [12]: 51.9 °C; MBC [10]: 25.4 µM (≈ 10 µg/mL); Activity [13]: Tde; log(activity) [5]: 2.4; log(activity) [14]: 3.4; log(activity) [7]: 2.5; Ratio [15]: 4
Cc1ccc2oc(-c3cccc(NC(=S)Nc4ccccc4)c3)nc2c1	69.6 (≈ 25 µg/mL)	87.32	8.69	8.69	–
COc1ccc(NC(=O)Nc2cccc(-c3nc4cc(C)ccc4o3)c2)cc1	67.9 (≈ 25.4 µg/mL)	11.09	–	–	–
O=C(Nc1ccc(Cl)cc1)Nc1cccc(-c2nc3ccccc3o2)c1	68.3 (≈ 24.9 µg/mL)	38.91	–	–	–
Cc1ccc2oc(-c3cccc(NC(=S)Nc4ccc([N+](=O)[O-])cc4)c3)nc2c1	61.9 (≈ 25 µg/mL)	98.1	1.91	1.91	–
O=C(Nc1ccccc1)Nc1cccc(-c2nc3ccccc3o2)c1	75.1 (≈ 24.7 µg/mL)	48.38	–	–	–
